Source: patent US12226414B2, “1-isopropyl-3-methyl-8-(pyridin-3-yl)-1,3-dihydro-2H-imidazo[4,5-c] cinnolin-2-one as selective modulators of ataxia telangiectasia mutated (ATM) kinase and uses thereof” (SUZHOU ZANRONG PHARMA LIMITED, priority 2018, dated 2025)

How the values were obtained:
mTOR = mTOR (Homo sapiens (Human), UniProt P42345); experiment: mTOR biochemical potency assay
Procedure: Solution of mTOR enzymes (Millipore, Cat. No. 14-770, Lot. No. 2052551) was prepared in 1× kinase buffer at 4-fold of the final concentration (final concentration: 6 nM) in the assay. 2.5 μl of kinase solution was added to each well of the 384-well assay plate, which contains 2.5 μl of compounds with serially diluted concentration. 2× substrate solution was prepared with ULight-4E-BP1 (Thr37/46) Peptide (PE, Cat. No. TRF0128-M, Lot. No. 1695274) and ATP in 1× kinase reaction buffer at 2-fold of the final concentration of each reagent in the assay. 5 μl of substrate solution was added to each well of the assay plate to start reaction. The assay plate was incubated at room temperature for 30 minutes. Detection solution of kinase quench buffer (EDTA) and Eu-anti-phospho-4E-BP1 antibody (Thr37/46) (PE, Cat. No. TRF0216-M, Lot. No. 1571838) were prepared at 2-fold the desired final concentrations of each reagent in Lance detection buffer. 10 μl of detection solution buffer was added to each well of the assay plate. The assay plate was equilibrated for 60 minutes at room temperature before read on a plate reader (Lance signal (665 nm) from Envision program).

PI3Kα (p110α/p85a) = PI3Kα (p110α/p85a) (Homo sapiens (Human), UniProt P42336); experiment: PI3K biochemical potency assay (PI3Kα)
Procedure: (§1) PI3Kα (p110α/p85a), PIK3C δ, PIK3Cβ (p110β), PIK3Cγ (pp110γ) kinase reaction solutions of PI3Kα (Invitrogen, Cat. No. PV4788), PIK3Cδ (Invitrogen, Cat. No. PV6452), PIK3Cβ (Millipore, Cat. No. 14-603-K), PIK3Cγ (Invitrogen, Cat. No. PR8641C) enzymes were prepared in 1× kinase buffer at 4-fold of the final concentration (final concentration: PI3Kα 0.7 nM, PIK3Cδ 3 nM, PIK3Cβ 4.8 nM, PIK3Cγ 11 nM) of each reagent in the assay. 2.5 μl of kinase solution was added to each well of the 384-well assay plate, which contains 2.5 μl of compounds with serially diluted concentration. 2× substrate solution was prepared with PIP2 substrate and ATP in 1× kinase reaction buffer at 2-fold of the final concentration of each reagent in the assay. 5 μl of substrate solution was added to each well of the assay plate to start reaction. The assay plate was incubated at room temperature for 1 hour. 5 μl reaction mix was transferred to a new 384 well plate. 5 μl of ADP-Glo reagent (Promega, Cat. No. v9102/3, Lot. No. 0000176563) was added to each well of the new assay plate to stop the reaction. The plate was shaken slowly and equilibrated for 40 minutes. 10 μl kinase detection reagents was added to each well, which was equilibrated for 60 minutes before read on a plate reader (Envision) for luminescence.

[1] = molecular target: ATM in SN38 treated HT-29 cells (Homo sapiens (Human), UniProt Q13315); experiment: ATM SN-38 HT-29 cellular potency assay
Procedure: Inhibition of ATM was evaluated in SN38 treated HT-29 cells (ATCC, Cat #HTB-38) by high-Content Imaging System
HT-29 cells were trypsinized and approximately 10,000 cells were seeded per well to 96-well microplates which were incubated overnight at 37° C. and 5% CO2. Test compounds were added to the 96-well plates which were incubated at 37° C. and 5% CO2 for 1 hour. […] After the plates were rinsed 3 times with PBSA, 50 μl permeabilization buffer (0.1% Triton-X 100 in PBSA) was added and the plates were incubated for 20 minutes at room temperature. After the plates were rinsed once with PBSA, 50 μl primary antibody solution was added and the plates were incubated in at 4° C. overnight. […] The plates were rinsed with PBST 3 times and then 100 μl PBSA were added per well. The plates were sealed with black plate seals.

ATM = ATM (Homo sapiens (Human), UniProt Q13315); experiment: ATM biochemical potency assay
Procedure: The plate was incubated at room temperature for 10 minutes. […] Data was collected by Caliper.

PIK3Cδ = PIK3Cδ (Homo sapiens (Human), UniProt O00329); experiment: PI3K biochemical potency assay (PI3Kδ)
Procedure: as §1

ATR = ATR (Homo sapiens (Human), UniProt Q13535); experiment: ATR biochemical potency assay
Procedure: ATR enzyme was made by ChemPartner (batch: CP-ATR-20161102-M2). 2× enzyme solutions were prepared in 1× kinase base buffer. 10 μl of 2× enzyme solution (final concentration: 2.5 nM) was added to each well of the 384-well assay plate containing 60 nl compound in each well. The plate was incubated at room temperature for 10 minutes. 2× peptide solutions were prepared with FAM-labeled peptide and ATP in the 1× kinase base buffer. 10 μl of 2× peptide solution was added to each well of the 384-well assay plate, which was incubated at 28° C. for 240 min. 40 μl of stop buffer was added to stop reaction. Data were collected by Caliper.

PIK3Cγ (pp110γ) = PIK3Cγ (pp110γ) (Homo sapiens (Human), UniProt P48736); experiment: PI3K biochemical potency assay (PI3Kγ)
Procedure: as §1

PIK3Cβ (p110β) = PIK3Cβ (p110β) (Homo sapiens (Human), UniProt P42338); experiment: PI3K biochemical potency assay (PI3Kβ)
Procedure: as §1

P-glycoprotein (Pgp) = P-glycoprotein (Pgp) (Homo sapiens (Human), UniProt P08183); experiment: MDCK-MDR1 Pgp assessment
Procedure: Efflux transport mediated by P-glycoprotein (Pgp) was assessed by MDCK-MDR1 cells. The final concentrations of test compounds and control compound were at 1 μM. The multiwell insert plate was incubated at 37° C. for 2 hours.

hERG channel = hERG channel (Homo sapiens (Human), UniProt Q12809); experiment: hERG safety assessment, manual patch clamp; conditions: for hERG inhibition @10 μM: HEK 293 cells stably expressing hERG
Procedure: Inhibition of hERG channel was conducted in HEK 293 cell line stably expressing hERG channel by manual patch clamp.

aldehyde oxidase (AO) [2] = molecular target: T1, aldehyde oxidase (AO) (Homo sapiens (Human), UniProt Q06278); experiment: Aldehyde oxidase assay in human liver cytosol; conditions: human liver cytosol 1 mg/mL, 0.5 μM compound
aldehyde oxidase (AO) [3] = molecular target: T1, aldehyde oxidase (AO); experiment: in vitro; conditions: human liver cytosol
[4] = cited from earlier work; for clearance as % liver blood flow: humans
BCRP = BCRP (Homo sapiens (Human), UniProt Q9UNQ0); experiment: Caco-2 BCRP assessment; assay type: in vitro ADME; conditions: −inhibitor/+inhibitor (novobiocin 30 μM)
Excerpt: Caco-2 cells was used to study efflux transport mediated by BCRP.

Sequence of PIK3Cβ (p110β) (P42338 whole entry, looked up): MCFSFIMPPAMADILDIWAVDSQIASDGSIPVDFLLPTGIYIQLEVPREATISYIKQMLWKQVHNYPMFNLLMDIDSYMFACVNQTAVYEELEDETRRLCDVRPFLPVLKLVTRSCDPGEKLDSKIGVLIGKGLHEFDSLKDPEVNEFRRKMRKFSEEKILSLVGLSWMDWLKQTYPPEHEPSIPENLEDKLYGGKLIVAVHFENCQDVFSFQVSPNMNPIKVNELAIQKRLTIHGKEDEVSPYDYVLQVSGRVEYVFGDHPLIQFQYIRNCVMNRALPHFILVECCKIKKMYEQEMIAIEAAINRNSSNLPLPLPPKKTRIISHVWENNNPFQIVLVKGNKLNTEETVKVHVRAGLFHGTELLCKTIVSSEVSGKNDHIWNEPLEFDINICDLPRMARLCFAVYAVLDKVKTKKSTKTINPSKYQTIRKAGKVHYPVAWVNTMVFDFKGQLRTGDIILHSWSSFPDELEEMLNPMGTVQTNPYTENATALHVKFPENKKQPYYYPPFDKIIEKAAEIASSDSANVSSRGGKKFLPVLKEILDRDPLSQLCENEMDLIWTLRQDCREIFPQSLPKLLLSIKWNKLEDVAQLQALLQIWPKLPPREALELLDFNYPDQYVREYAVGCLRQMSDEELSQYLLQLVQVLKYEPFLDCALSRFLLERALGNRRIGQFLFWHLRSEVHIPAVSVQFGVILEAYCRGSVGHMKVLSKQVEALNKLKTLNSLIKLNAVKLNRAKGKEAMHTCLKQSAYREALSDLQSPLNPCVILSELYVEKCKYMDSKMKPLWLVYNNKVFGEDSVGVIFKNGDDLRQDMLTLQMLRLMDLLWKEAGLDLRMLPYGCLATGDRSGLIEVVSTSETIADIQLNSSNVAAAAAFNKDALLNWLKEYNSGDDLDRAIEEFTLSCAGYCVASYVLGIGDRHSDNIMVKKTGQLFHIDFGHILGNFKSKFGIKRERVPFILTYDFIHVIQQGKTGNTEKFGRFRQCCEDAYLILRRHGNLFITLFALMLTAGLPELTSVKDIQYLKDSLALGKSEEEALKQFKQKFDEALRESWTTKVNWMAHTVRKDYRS
Sequence of PIK3Cβ (p110β) (P27986 whole entry partner, looked up): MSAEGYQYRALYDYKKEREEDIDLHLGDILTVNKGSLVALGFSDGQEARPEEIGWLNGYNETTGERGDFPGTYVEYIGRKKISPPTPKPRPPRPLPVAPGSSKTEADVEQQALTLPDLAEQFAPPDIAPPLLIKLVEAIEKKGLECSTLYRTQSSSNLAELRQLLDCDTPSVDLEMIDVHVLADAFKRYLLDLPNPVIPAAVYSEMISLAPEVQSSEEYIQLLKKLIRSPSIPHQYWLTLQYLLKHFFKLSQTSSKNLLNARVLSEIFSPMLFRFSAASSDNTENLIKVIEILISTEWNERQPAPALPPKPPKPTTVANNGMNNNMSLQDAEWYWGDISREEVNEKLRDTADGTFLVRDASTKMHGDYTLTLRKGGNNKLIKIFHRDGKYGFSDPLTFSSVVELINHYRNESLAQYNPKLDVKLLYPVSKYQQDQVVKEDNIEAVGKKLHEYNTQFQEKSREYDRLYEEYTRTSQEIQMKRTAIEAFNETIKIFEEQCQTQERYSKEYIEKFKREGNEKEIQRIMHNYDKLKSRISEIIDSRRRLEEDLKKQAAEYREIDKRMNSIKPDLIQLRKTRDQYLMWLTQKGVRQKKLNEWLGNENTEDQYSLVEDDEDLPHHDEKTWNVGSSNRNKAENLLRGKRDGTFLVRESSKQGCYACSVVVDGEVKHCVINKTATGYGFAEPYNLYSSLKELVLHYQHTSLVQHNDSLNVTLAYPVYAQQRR
Sequence of PI3Kα (p110α/p85a) (P42336 whole entry, looked up): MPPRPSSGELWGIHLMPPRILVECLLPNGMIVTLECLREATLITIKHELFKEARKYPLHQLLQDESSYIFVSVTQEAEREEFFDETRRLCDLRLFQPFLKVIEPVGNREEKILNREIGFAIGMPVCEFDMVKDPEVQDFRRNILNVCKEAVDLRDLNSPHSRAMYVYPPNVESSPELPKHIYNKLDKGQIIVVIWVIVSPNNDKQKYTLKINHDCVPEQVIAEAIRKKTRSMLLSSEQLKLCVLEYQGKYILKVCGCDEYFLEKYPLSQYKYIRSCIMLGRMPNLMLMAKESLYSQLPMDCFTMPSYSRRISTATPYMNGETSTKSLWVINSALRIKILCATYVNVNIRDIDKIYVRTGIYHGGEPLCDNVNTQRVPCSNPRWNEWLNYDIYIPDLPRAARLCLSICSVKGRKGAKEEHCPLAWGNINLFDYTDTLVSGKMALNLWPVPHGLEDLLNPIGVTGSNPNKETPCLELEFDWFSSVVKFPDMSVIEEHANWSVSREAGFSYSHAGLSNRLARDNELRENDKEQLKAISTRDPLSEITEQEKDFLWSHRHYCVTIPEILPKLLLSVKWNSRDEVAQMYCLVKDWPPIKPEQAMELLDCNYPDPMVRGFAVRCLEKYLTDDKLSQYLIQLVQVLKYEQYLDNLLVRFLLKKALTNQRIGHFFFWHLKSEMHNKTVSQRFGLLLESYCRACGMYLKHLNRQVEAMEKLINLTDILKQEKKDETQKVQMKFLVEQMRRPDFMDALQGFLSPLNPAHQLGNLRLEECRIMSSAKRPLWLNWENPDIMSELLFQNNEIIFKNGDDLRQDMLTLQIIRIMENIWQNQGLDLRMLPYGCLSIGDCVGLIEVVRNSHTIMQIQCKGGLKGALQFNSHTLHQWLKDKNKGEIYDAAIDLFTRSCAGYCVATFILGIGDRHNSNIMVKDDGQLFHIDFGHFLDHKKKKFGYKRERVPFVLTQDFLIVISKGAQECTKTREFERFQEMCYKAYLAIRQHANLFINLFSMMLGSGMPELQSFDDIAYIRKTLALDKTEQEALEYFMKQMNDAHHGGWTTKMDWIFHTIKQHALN
Sequence of PI3Kα (p110α/p85a) (P27986 whole entry partner, looked up): as the sequence (P27986 whole entry partner, looked up) above
Sequence of hERG channel (Q12809 whole entry): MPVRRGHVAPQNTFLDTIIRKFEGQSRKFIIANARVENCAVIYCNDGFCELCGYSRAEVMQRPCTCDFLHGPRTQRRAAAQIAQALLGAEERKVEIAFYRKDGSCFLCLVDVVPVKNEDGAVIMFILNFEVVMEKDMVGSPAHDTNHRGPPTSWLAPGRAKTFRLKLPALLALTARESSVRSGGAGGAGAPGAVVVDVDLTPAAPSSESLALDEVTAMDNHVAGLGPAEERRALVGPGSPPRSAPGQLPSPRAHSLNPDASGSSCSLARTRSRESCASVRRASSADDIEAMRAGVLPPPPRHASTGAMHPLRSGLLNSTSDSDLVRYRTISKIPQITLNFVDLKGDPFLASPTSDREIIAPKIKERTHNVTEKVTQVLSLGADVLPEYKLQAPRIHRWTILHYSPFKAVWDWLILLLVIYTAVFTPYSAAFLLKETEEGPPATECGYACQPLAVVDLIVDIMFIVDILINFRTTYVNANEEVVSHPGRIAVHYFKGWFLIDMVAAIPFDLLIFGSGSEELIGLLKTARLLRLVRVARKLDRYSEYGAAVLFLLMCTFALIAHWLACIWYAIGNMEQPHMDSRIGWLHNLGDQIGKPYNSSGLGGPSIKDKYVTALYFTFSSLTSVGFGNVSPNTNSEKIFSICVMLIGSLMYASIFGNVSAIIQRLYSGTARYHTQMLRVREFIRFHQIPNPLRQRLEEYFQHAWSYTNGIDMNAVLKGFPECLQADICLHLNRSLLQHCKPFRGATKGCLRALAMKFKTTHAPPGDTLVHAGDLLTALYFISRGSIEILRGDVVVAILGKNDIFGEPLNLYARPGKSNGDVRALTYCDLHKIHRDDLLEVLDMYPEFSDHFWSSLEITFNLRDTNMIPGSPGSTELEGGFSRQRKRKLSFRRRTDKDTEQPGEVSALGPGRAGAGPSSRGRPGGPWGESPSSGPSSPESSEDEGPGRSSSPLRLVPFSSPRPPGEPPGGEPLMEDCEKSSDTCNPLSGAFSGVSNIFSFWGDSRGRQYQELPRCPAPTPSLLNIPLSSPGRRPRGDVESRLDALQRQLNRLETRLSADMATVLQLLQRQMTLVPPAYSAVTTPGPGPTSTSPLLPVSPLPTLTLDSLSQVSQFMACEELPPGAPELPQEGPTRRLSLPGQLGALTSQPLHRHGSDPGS
Sequence of BCRP (Q9UNQ0 whole entry): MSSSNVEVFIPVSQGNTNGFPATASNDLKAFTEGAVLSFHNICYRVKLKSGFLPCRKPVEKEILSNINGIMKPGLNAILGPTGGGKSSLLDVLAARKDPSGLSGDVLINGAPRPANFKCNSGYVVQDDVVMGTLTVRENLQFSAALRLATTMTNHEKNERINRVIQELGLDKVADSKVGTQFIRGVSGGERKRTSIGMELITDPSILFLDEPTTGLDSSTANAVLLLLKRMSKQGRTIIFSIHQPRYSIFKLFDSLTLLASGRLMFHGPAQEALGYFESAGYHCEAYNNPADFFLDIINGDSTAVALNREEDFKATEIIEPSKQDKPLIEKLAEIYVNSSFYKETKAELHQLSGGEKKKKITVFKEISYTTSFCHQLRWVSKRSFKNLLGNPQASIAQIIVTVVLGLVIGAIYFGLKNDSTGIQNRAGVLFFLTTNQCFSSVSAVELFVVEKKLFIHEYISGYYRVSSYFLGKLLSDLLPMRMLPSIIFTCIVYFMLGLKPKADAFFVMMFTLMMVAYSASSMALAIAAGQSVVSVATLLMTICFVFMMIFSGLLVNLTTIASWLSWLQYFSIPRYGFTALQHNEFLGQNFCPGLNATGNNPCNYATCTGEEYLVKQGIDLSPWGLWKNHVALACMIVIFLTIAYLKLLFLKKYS

Row | SMILES | IC50 (mTOR) [µM] | IC50 (PI3Kα (p110α/p85a)) [µM] | IC50 [1] [µM] | IC50 (ATM) [µM] | IC50 (PIK3Cδ) [µM] | IC50 (ATR) [µM] | IC50 (PIK3Cγ (pp110γ)) [µM] | IC50 (PIK3Cβ (p110β)) [µM] | further results
1 | CC(C)n1c(=O)n(C)c2nnc3cc(F)c(-c4ccc(COCCN5CCCCC5)nc4)cc3c21 [Example 7, 7-fluoro-1-isopropyl-3-methyl-8-(6-((2-(piperidin-1-yl)ethoxy)methyl)pyridin-3-yl)-1H-imidazo[4,5-c]cinnolin-2(3H)-one] | > 10 | > 10 | 0.274 | 0.026 | > 10 | > 10 | > 10 | > 10 | 
2 | CC(C)n1c(=O)n(C)c2nnc3cc(F)c(-c4ccc(COCCN5CC6CC6C5)nc4)cc3c21 (stereo not drawn) [Example 11, 8-(6-((2-(3-azabicyclo[3.1.0]hexan-3-yl)ethoxy)methyl)pyridin-3-yl)-7-fluoro-1-isopropyl-3-methyl-1H-imidazo[4,5-c]cinnolin-2(3H)-one] | > 10 | > 10 | 0.018 | 0.037 | > 10 | > 10 | > 10 | > 10 | 
3 | CC(C)n1c(=O)n(C)c2nnc3cc(F)c(-c4ccc(OCCCN5CCC(F)CC5)nc4)cc3c21 [Example 13, 7-fluoro-8-(6-(3-(4-fluoropiperidin-1-yl)propoxy)pyridin-3-yl)-1-isopropyl-3-methyl-1H-imidazo[4,5-c]cinnolin-2(3H)-one] | > 10 | > 10 | 0.027 | > 1 | > 10 | > 10 | > 10 | > 10 | 
4 | CC(C)n1c(=O)n(C)c2nnc3cc(F)c(-c4ccc(OCCCN5CC6CC6C5)nc4)cc3c21 (stereo not drawn) [Example 16, 8-(6-(3-(3-azabicyclo[3.1.0]hexan-3-yl)propoxy)pyridin-3-yl)-7-fluoro-1-isopropyl-3-methyl-1H-imidazo[4,5-c]cinnolin-2(3H)-one] | > 10 | > 10 | 0.0185 | > 1 | > 10 | > 10 | > 10 | > 10 | 
5 | CC(C)n1c(=O)n(C)c2cnc3cc(F)c(-c4ccc(OCCCN5CCCCC5)nc4)cc3c21 [Ref. Comp. 3, AZD1390] |  |  |  |  |  |  |  |  | Pgp substrate (in words) (P-glycoprotein (Pgp)): not a Pgp substrate; hERG liability (in words) (hERG channel): significant hERG inhibition; hERG inhibition @10 μM (hERG channel): 79%
6 | CCN(C(C)=O)c1cccc(-c2ccnc3c(C#N)cnn23)c1 [Ref. Comp. 4, N-[3-(3-cyanopyrazolo[1,5-a]pyrimidin-7-yl)phenyl]-N-ethylacetamide] |  |  |  |  |  |  |  |  | AO intrinsic clearance (aldehyde oxidase (AO) [2]): 3.1 μL/min/mg protein; microsomal CLint at 0.5 μM (aldehyde oxidase (AO) [3]): 3.1 µL/min/mg; clearance as % liver blood flow [4]: ~80 % liver blood flow
7 | OCCn1cc(-c2cnc3nnn(Cc4ccc5ncccc5c4)c3n2)cn1 [Ref. Comp. 5, 2-[4-[3-(quinolin-6-ylmethyl)triazolo[4,5-b]pyrazin-5-yl]pyrazol-1-yl]ethanol] |  |  |  |  |  |  |  |  | clearance in humans [4]: 6 mL/min/kg; clearance as % liver blood flow [4]: ~30 % liver blood flow
8 | CN(C)CCCOc1ccc(-c2ccc3nnc4c(c3c2)n(C2CCOCC2)c(=O)n4C)cn1 [compound 1, 8-[6-(3-dimethylamino-propoxy)-pyridin-3-yl]-3-methyl-1-(tetrahydro-2H-pyran-4-yl)-1H-imidazo[4,5-c]cinnolin-2(3H)-one] |  |  | 0.112 | 0.0029 |  |  |  |  | efflux ratio at 2 h, 1 μM (P-glycoprotein (Pgp); human): 5.6; efflux ratio at 2 h, 1 μM (BCRP): 0.62; hERG inhibition @10 μM (hERG channel): 58%
